According to US7985586B2, “Oligodendrocyte precursor cell composition and methods of use” (Georgia Health Sciences University, priority 2008, dated 2011):
“Also recorded” adds a separate entry of the source.

Assays:
[1] = cited from earlier work
EB-derived cells (EBCs) [2] = test: S18-induced apoptosis / elimination of EB-derived cell sub-populations and protection by S1P analogs; assay type: cell-based, mouse; details: for protection of S18-sensitive NPCs (NPC2) from apoptosis: added to medium with S18
Experimental: FIG. 4 illustrates making sphingolipid-enhanced neural stem cells (SENSe). FIG. 4A illustrates that mouse ES cells were differentiated to the attached EB stage and immunocytochemistry performed using antibodies against Oct-4 and S1P1. NPC2 cells show Oct-4(−) and S1P1(+). […] Expression of S1P1 protects them from S18-induced apoptosis if S1P or its analogs are added to the medium. FIG. 4B provides that there are three sub-populations of EB-derived cells (EBCs): 1) Residual pluripotent (Oct-4(+)/PAR-4(+)/S1P1(−) cells. […] They are not protected by S1P1; 2) NPC1 cells are Oct-4(−)/PAR-4(−)/S1P1(+) and represent nestin-expressing neural progenitors. […] FIG. 4C illustrates that NPC2 cells are stained for A2B5 epitope, a marker for oligodendrocyte precursor cells.
(§1) This protocol was modified using S18 or S1P (or its analogs) for incubation of differentiating ES cells at the EB stage prior to and after dissociation. After incubation with 50-100 μM S18 and/or 0.1-2 μM S1P or S1P analogs for 48 h, EBCs were dissociated and then immediately re-plated, and further incubated with NP medium supplemented with 50-100 μM S18 and 0.1-2 μM S1P or S1P analogs. NPCs were either transplanted into brain or spinal cord or in vitro differentiated in differentiation medium.
(§2) In vitro, treatment with a combination of S18 and S1P or S1P analogs (FTY720, VPC24191, SEW2871) increases the number of oligodendrocyte precursors (ODPCs) by about 20-fold (Table 1). […] This observation was unexpected and novel, because it has not been shown before that combined treatment with S18 and S1P analogs can enrich for ODPCs.

[3] = tested on: oligodendrocyte precursors (ODPCs) from EB-derived cells; test: Generation of iODPCs from EB-derived cells treated with S18 and S1P or S1P analogs; assay type: cell-based, mouse; details: for effect on the number of ODPCs / ODPCs [% of total cells]: S1P 1 μM, VPC24191 or SEW2871 300 nM, FTY720 300 nM; for increase of the number of oligodendrocyte precursors (ODPCs): in vitro, combination with S18; for ODPCs [% of total cells]: in combination with S18, n=4 independent experiments
Experimental: Pre-implantation blastocyst-derived ES cells (ES-J1, Rosa26, E14) were grown on γ-irradiated feeder fibroblasts, and neural differentiation was induced by serum deprivation of EBs as previously described. Attached EBs were dissociated and EB-derived cells (EBCs) plated on polyornithin/laminin-coated dishes. At this stage, cells were grown in DMEM/F12 supplemented with N2 and FGF-2 (EB medium). EBCs acquire all characteristics of genuine NPCs, including expression of nestin. Sox1, and FGFR1. In the presence of FGF-2, NPCs can be dissociated and propagated at >80% homogeneity.
as §1
For incubation with S18 and S1P (or S1P) analogs add: 50-100 μM S18; 0.1-2 μM S1P or S1P analogs (FTY720, SEW2871, VPC24191 or related compounds) to EB and NP medium. The incubation time can vary from 24-72 h.
as §2

primitive ectoderm cells = details: suspension EBs; ref [3]; cited from earlier work
EB-derived cells (EBCs) [4] = details: stage of forming NPCs; ref [5]; cited from earlier work

SMILES	effect on the number of ODPCs [3]	increase of the number of oligodendrocyte precursors (ODPCs) [3]	ODPCs [% of total cells] ([3]; VPC23019 2 μM)	also measured
CCCCCCCCCCCCC/C=C/[C@@H](O)[C@H](CO)NC(C)=O [C2 ceramide, N-acetyl sphingosine]				water solubility compared with physiological ceramide species (e.g. C16 ceramide) [1]: several-fold higher
CCCCCCCCc1ccc(CCC(N)(CO)CO)cc1 [FTY720, 2-amino-2-[2-(4-octylphenyl)ethyl]propane-1,3-diol]	elevate the number of ODPCs	about 20 fold		protection of S18-sensitive NPCs (NPC2) from apoptosis (EB-derived cells (EBCs) [2]): rescue S18-sensitive NPCs from apoptosis; also recorded: can be protected
CCCCCCCCCCCCC/C=C/[C@@H](O)[C@@H](N)COP(=O)(O)O [S1P, sphingosine-1-phosphate]	elevate the number of ODPCs	about 20 fold	12 +/− 3%	protection of S18-sensitive NPCs (NPC2) from apoptosis (EB-derived cells (EBCs) [2]): rescue S18-sensitive NPCs from apoptosis; also recorded: can be protected
CCCCCCCC/C=C\CCCCCCCC(=O)NC(CO)CO [S18, N-(2-hydroxy-1-(hydroxymethyl)ethyl)-oleoylamide]				S18-induced apoptosis in NPC1 (Oct-4(−)/PAR-4(−)/S1P1(+)) cells (EB-derived cells (EBCs) [2]): do not undergo S18-induced apoptosis; elimination of teratoma-forming residual pluripotent (Oct-4(+)/PAR-4(+)/S1P1(−)) cells (EB-derived cells (EBCs) [2]; ES cell graft / EB-derived cells): specifically eliminate teratoma-forming cells; also recorded: are eliminated by S18; elimination of NPC2 (Oct-4(−)/PAR-4(+)/S1P1(+)) cells (EB-derived cells (EBCs) [2]; without S1P or FTY720): is also eliminated by S18; also recorded: are eliminated by S18; primitive ectoderm formation after ceramide depletion (primitive ectoderm cells): restores primitive ectoderm formation; elimination of Oct-4(+) cells from differentiating ES cells (EB-derived cells (EBCs) [4]): eliminates Oct-4(+) cells
FC(F)(F)c1cccc(-c2noc(-c3cc(-c4ccccc4)c(C(F)(F)F)s3)n2)c1 [SEW2871]	elevate the number of ODPCs	about 20 fold	18 +/− 3%	
CCCCCCCCc1cccc(NC(=O)[C@H](N)COP(=O)(O)O)c1 [VPC23019]				effect of S1P1 antagonist on the S1P and FTY720 effect ([3]; VPC23019 2 μM): inhibits the effect of S1P and FTY720
CCCCCCCCc1ccc(NC[C@H](N)COP(=O)(O)O)cc1 [VPC24191]	elevate the number of ODPCs	about 20 fold	28 +/− 5%	
